Results: EP1935986B1, “Luminogenic and fluorogenic compounds and methods to detect molecules or conditions” (priority 2005, dated 2006)

Columns and labels:
[1] = test system: thermostable luciferase (Luc 146-1H2); test: Thermostable luciferase reaction with luciferin derivatives: light readings; assay type: biochemical
Experimental: (§1) This stock was used to produce enzyme stock solution having of 200 µg/ml enzyme solution in 1 mg/ml BSA, 200 mM HEPES buffer, pH 8.0, 20 mM MgCl2.
(§2) Solutions were made using a 1 M DTT solution, pH adjusted to 8.0, a 20 mM Coenzyme A solution in water (both described in examples above), a 100 mM ATP solution and water to create the following solutions: Sol'A, 100 µM ATP; Sol'B, 100 µM ATP, 4 mM Coenzyme A; Sol'n C, 100 µM ATP, 400 mM DTT, and; Sol'n D, 100 µM ATP, 4 mM Coenzyme A and 400 mM DTT.
The following reactions were prepared (Table 47) Table 47
(§3) After assembly, the reactions were initiated by addition of 25 µl of the thermostable luciferase stock solution above and mixing the tube contents. A 50 µl sample was immediately removed and placed in a luminometer tube and the light read and the tube then replaced in a tube rack at room temperature. While the light reading was being taken, a 5 µl sample of the remaining reaction (which was kept at room temperature) was diluted into 495 µl of 50 mM BisTris, pH 6.5, 1 mg/ml BSA, 1 mM EDTA prechilled to 4°C and the tube mixed and placed on ice. The light produced by the samples in the luminometer tubes were re-read at 20, 40, 60, 90 and 120 minutes post enzyme addition. Additional 5 µl samples were taken and diluted as above at 60 and 120 minutes post enzyme addition. Once all these readings and samples were taken, 50 µl of the diluted samples was mixed with 50 µl of Steady Glo in luminometer tubes, the tubes incubated 10 minutes on ice then the light produced was read on a Turner TD 20/20 luminometer.

[2] = test system: thermostable luciferase (Luc 146-1H2); test: Residual thermostable luciferase activity after reaction with luciferin derivatives (Steady Glo); assay type: biochemical
Experimental: as §1, §2, §3

## O=C(O)[C@H]1CSC(c2nc3ccc(OCc4ccccc4)cc3s2)=N1 [L'in-BE]
[1]; substrate 6.25 (L'in-BE: 6.26), + Co A & DTT, Time 0 min
  light readings from the reaction samples: 436.9
[1]; substrate 6.25 (L'in-BE: 6.26), + Co A & DTT, Time 20 min
  light readings from the reaction samples: 80.41
[1]; substrate 6.25 (L'in-BE: 6.26), + Co A & DTT, Time 40 min
  light readings from the reaction samples: 38.47
[1]; substrate 6.25 (L'in-BE: 6.26), + Co A & DTT, Time 60 min
  light readings from the reaction samples: 22.83
[1]; substrate 6.25 (L'in-BE: 6.26), + Co A & DTT, Time 90 min
  light readings from the reaction samples: 16.08
[1]; substrate 6.25 (L'in-BE: 6.26), + Co A & DTT, Time 120 min
  light readings from the reaction samples: 12.01
[1]; substrate 6.25 (L'in-BE: 6.26), + Co A, Time 0 min
  light readings from the reaction samples: 2575
[1]; substrate 6.25 (L'in-BE: 6.26), + Co A, Time 20 min
  light readings from the reaction samples: 207.1
[1]; substrate 6.25 (L'in-BE: 6.26), + Co A, Time 40 min
  light readings from the reaction samples: 83.73
[1]; substrate 6.25 (L'in-BE: 6.26), + Co A, Time 60 min
  light readings from the reaction samples: 45.54
[1]; substrate 6.25 (L'in-BE: 6.26), + Co A, Time 90 min
  light readings from the reaction samples: 24
[1]; substrate 6.25 (L'in-BE: 6.26), + Co A, Time 120 min
  light readings from the reaction samples: 14.42
[1]; substrate 6.25 (L'in-BE: 6.26), + DTT, Time 0 min
  light readings from the reaction samples: 455.6
[1]; substrate 6.25 (L'in-BE: 6.26), + DTT, Time 20 min
  light readings from the reaction samples: 71.9
[1]; substrate 6.25 (L'in-BE: 6.26), + DTT, Time 40 min
  light readings from the reaction samples: 33.73
[1]; substrate 6.25 (L'in-BE: 6.26), + DTT, Time 60 min
  light readings from the reaction samples: 21.49
[1]; substrate 6.25 (L'in-BE: 6.26), + DTT, Time 90 min
  light readings from the reaction samples: 13.67
[1]; substrate 6.25 (L'in-BE: 6.26), + DTT, Time 120 min
  light readings from the reaction samples: 9.847
[1]; substrate 6.25 (L'in-BE: 6.26), Alone, Time 0 min
  light readings from the reaction samples: 785.5
[1]; substrate 6.25 (L'in-BE: 6.26), Alone, Time 20 min
  light readings from the reaction samples: 62.64
[1]; substrate 6.25 (L'in-BE: 6.26), Alone, Time 40 min
  light readings from the reaction samples: 22.11
[1]; substrate 6.25 (L'in-BE: 6.26), Alone, Time 60 min
  light readings from the reaction samples: 11.22
[1]; substrate 6.25 (L'in-BE: 6.26), Alone, Time 90 min
  light readings from the reaction samples: 5.189
[1]; substrate 6.25 (L'in-BE: 6.26), Alone, Time 120 min
  light readings from the reaction samples: 2.995
[1]; substrate 25, + Co A & DTT, Time 0 min
  light readings from the reaction samples: 402
[1]; substrate 25, + Co A & DTT, Time 20 min
  light readings from the reaction samples: 85.37
[1]; substrate 25, + Co A & DTT, Time 40 min
  light readings from the reaction samples: 45.87
[1]; substrate 25, + Co A & DTT, Time 60 min
  light readings from the reaction samples: 27.94
[1]; substrate 25, + Co A & DTT, Time 90 min
  light readings from the reaction samples: 18.94
[1]; substrate 25, + Co A & DTT, Time 120 min
  light readings from the reaction samples: 13.13
[1]; substrate 25, + Co A, Time 0 min
  light readings from the reaction samples: 972.4
[1]; substrate 25, + Co A, Time 20 min
  light readings from the reaction samples: 127.4
[1]; substrate 25, + Co A, Time 40 min
  light readings from the reaction samples: 58.9
[1]; substrate 25, + Co A, Time 60 min
  light readings from the reaction samples: 31.96
[1]; substrate 25, + Co A, Time 90 min
  light readings from the reaction samples: 17.54
[1]; substrate 25, + Co A, Time 120 min
  light readings from the reaction samples: 9.727
[1]; substrate 25, + DTT, Time 0 min
  light readings from the reaction samples: 448.6
[1]; substrate 25, + DTT, Time 20 min
  light readings from the reaction samples: 84.21
[1]; substrate 25, + DTT, Time 40 min
  light readings from the reaction samples: 43.77
[1]; substrate 25, + DTT, Time 60 min
  light readings from the reaction samples: 27.21
[1]; substrate 25, + DTT, Time 90 min
  light readings from the reaction samples: 18.48
[1]; substrate 25, + DTT, Time 120 min
  light readings from the reaction samples: 12.93
[1]; substrate 25, Alone, Time 0 min
  light readings from the reaction samples: 623.2
[1]; substrate 25, Alone, Time 20 min
  light readings from the reaction samples: 73.96
[1]; substrate 25, Alone, Time 40 min
  light readings from the reaction samples: 28.76
[1]; substrate 25, Alone, Time 60 min
  light readings from the reaction samples: 13.42
[1]; substrate 25, Alone, Time 90 min
  light readings from the reaction samples: 5.528
[1]; substrate 25, Alone, Time 120 min
  light readings from the reaction samples: 2.549
[1]; substrate 100, + Co A & DTT, Time 0 min
  light readings from the reaction samples: 140.4
[1]; substrate 100, + Co A & DTT, Time 20 min
  light readings from the reaction samples: 71.5
[1]; substrate 100, + Co A & DTT, Time 40 min
  light readings from the reaction samples: 45.66
[1]; substrate 100, + Co A & DTT, Time 60 min
  light readings from the reaction samples: 29.32
[1]; substrate 100, + Co A & DTT, Time 90 min
  light readings from the reaction samples: 19.92
[1]; substrate 100, + Co A & DTT, Time 120 min
  light readings from the reaction samples: 13.08
[1]; substrate 100, + Co A, Time 0 min
  light readings from the reaction samples: 191.9
[1]; substrate 100, + Co A, Time 20 min
  light readings from the reaction samples: 63.85
[1]; substrate 100, + Co A, Time 40 min
  light readings from the reaction samples: 29.28
[1]; substrate 100, + Co A, Time 60 min
  light readings from the reaction samples: 14.78
[1]; substrate 100, + Co A, Time 90 min
  light readings from the reaction samples: 6.652
[1]; substrate 100, + Co A, Time 120 min
  light readings from the reaction samples: 3.014
[1]; substrate 100, + DTT, Time 0 min
  light readings from the reaction samples: 148.7
[1]; substrate 100, + DTT, Time 20 min
  light readings from the reaction samples: 77.9
[1]; substrate 100, + DTT, Time 40 min
  light readings from the reaction samples: 48.39
[1]; substrate 100, + DTT, Time 60 min
  light readings from the reaction samples: 32.26
[1]; substrate 100, + DTT, Time 90 min
  light readings from the reaction samples: 21.71
[1]; substrate 100, + DTT, Time 120 min
  light readings from the reaction samples: 14.25
[1]; substrate 100, Alone, Time 0 min
  light readings from the reaction samples: 160
[1]; substrate 100, Alone, Time 20 min
  light readings from the reaction samples: 48.21
[1]; substrate 100, Alone, Time 40 min
  light readings from the reaction samples: 19.25
[1]; substrate 100, Alone, Time 60 min
  light readings from the reaction samples: 8.305
[1]; substrate 100, Alone, Time 90 min
  light readings from the reaction samples: 2.843
[1]; substrate 100, Alone, Time 120 min
  light readings from the reaction samples: 1.311
[2]; Substrate 6.25, + Co A & DTT, Time Sample Taken 0 min
  light values obtained upon addition of the diluted reaction samples into Steady Glo reagent: 1943
[2]; Substrate 6.25, + Co A & DTT, Time Sample Taken 60 min
  light values obtained upon addition of the diluted reaction samples into Steady Glo reagent: 1235
[2]; Substrate 6.25, + Co A & DTT, Time Sample Taken 120 min
  light values obtained upon addition of the diluted reaction samples into Steady Glo reagent: 1163
[2]; Substrate 6.25, + Co A, Time Sample Taken 0 min
  light values obtained upon addition of the diluted reaction samples into Steady Glo reagent: 1841
[2]; Substrate 6.25, + Co A, Time Sample Taken 60 min
  light values obtained upon addition of the diluted reaction samples into Steady Glo reagent: 518.6
[2]; Substrate 6.25, + Co A, Time Sample Taken 120 min
  light values obtained upon addition of the diluted reaction samples into Steady Glo reagent: 349.1
[2]; Substrate 6.25, + DTT, Time Sample Taken 0 min
  light values obtained upon addition of the diluted reaction samples into Steady Glo reagent: 1860
[2]; Substrate 6.25, + DTT, Time Sample Taken 60 min
  light values obtained upon addition of the diluted reaction samples into Steady Glo reagent: 1173
[2]; Substrate 6.25, + DTT, Time Sample Taken 120 min
  light values obtained upon addition of the diluted reaction samples into Steady Glo reagent: 1067
[2]; Substrate 6.25, Alone, Time Sample Taken 0 min
  light values obtained upon addition of the diluted reaction samples into Steady Glo reagent: 2057
[2]; Substrate 6.25, Alone, Time Sample Taken 60 min
  light values obtained upon addition of the diluted reaction samples into Steady Glo reagent: 406.6
[2]; Substrate 6.25, Alone, Time Sample Taken 120 min
  light values obtained upon addition of the diluted reaction samples into Steady Glo reagent: 267.7
[2]; Substrate 25, + Co A & DTT, Time Sample Taken 0 min
  light values obtained upon addition of the diluted reaction samples into Steady Glo reagent: 1925
[2]; Substrate 25, + Co A & DTT, Time Sample Taken 60 min
  light values obtained upon addition of the diluted reaction samples into Steady Glo reagent: 1102
[2]; Substrate 25, + Co A & DTT, Time Sample Taken 120 min
  light values obtained upon addition of the diluted reaction samples into Steady Glo reagent: 836.3
[2]; Substrate 25, + Co A, Time Sample Taken 0 min
  light values obtained upon addition of the diluted reaction samples into Steady Glo reagent: 1610
[2]; Substrate 25, + Co A, Time Sample Taken 60 min
  light values obtained upon addition of the diluted reaction samples into Steady Glo reagent: 277.8
[2]; Substrate 25, + Co A, Time Sample Taken 120 min
  light values obtained upon addition of the diluted reaction samples into Steady Glo reagent: 143.2
[2]; Substrate 25, + DTT, Time Sample Taken 0 min
  light values obtained upon addition of the diluted reaction samples into Steady Glo reagent: 1675
[2]; Substrate 25, + DTT, Time Sample Taken 60 min
  light values obtained upon addition of the diluted reaction samples into Steady Glo reagent: 910.2
[2]; Substrate 25, + DTT, Time Sample Taken 120 min
  light values obtained upon addition of the diluted reaction samples into Steady Glo reagent: 738.9
[2]; Substrate 25, Alone, Time Sample Taken 0 min
  light values obtained upon addition of the diluted reaction samples into Steady Glo reagent: 1309
[2]; Substrate 25, Alone, Time Sample Taken 60 min
  light values obtained upon addition of the diluted reaction samples into Steady Glo reagent: 157.1
[2]; Substrate 25, Alone, Time Sample Taken 120 min
  light values obtained upon addition of the diluted reaction samples into Steady Glo reagent: 72.57
[2]; Substrate 100, + Co A & DTT, Time Sample Taken 0 min
  light values obtained upon addition of the diluted reaction samples into Steady Glo reagent: 1780
[2]; Substrate 100, + Co A & DTT, Time Sample Taken 60 min
  light values obtained upon addition of the diluted reaction samples into Steady Glo reagent: 1016
[2]; Substrate 100, + Co A & DTT, Time Sample Taken 120 min
  light values obtained upon addition of the diluted reaction samples into Steady Glo reagent: 778.7
[2]; Substrate 100, + Co A, Time Sample Taken 0 min
  light values obtained upon addition of the diluted reaction samples into Steady Glo reagent: 1486
[2]; Substrate 100, + Co A, Time Sample Taken 60 min
  light values obtained upon addition of the diluted reaction samples into Steady Glo reagent: 242.2
[2]; Substrate 100, + Co A, Time Sample Taken 120 min
  light values obtained upon addition of the diluted reaction samples into Steady Glo reagent: 82.03
[2]; Substrate 100, + DTT, Time Sample Taken 0 min
  light values obtained upon addition of the diluted reaction samples into Steady Glo reagent: 1762
[2]; Substrate 100, + DTT, Time Sample Taken 60 min
  light values obtained upon addition of the diluted reaction samples into Steady Glo reagent: 952.1
[2]; Substrate 100, + DTT, Time Sample Taken 120 min
  light values obtained upon addition of the diluted reaction samples into Steady Glo reagent: 691
[2]; Substrate 100, Alone, Time Sample Taken 0 min
  light values obtained upon addition of the diluted reaction samples into Steady Glo reagent: 1245
[2]; Substrate 100, Alone, Time Sample Taken 60 min
  light values obtained upon addition of the diluted reaction samples into Steady Glo reagent: 156.4
[2]; Substrate 100, Alone, Time Sample Taken 120 min
  light values obtained upon addition of the diluted reaction samples into Steady Glo reagent: 61.75
